Laboratory results reported in US20240117005A1, “NOVEL BICYCLIC PEPTIDES” (THE COUNCIL OF THE QUEENSLAND INSTITUTE OF MEDICAL RESEARCH, priority 2021, published 2024).
Entries after “also recorded” stand apart in the source; their conditions may differ. No end group written: not given here. *: point of attachment. Myristyl = CCCCCCCCCCCCCC*

Target: T1, complex of PDL1 (unmodified) and IMPα1 (Mus musculus, UniProt P52293)
T1 construct: endogenous in cells; host or cells: CT26
Test: DUOLINK proximity assay PDL1 (unmodified) and IMPα1, CT26
Assay type: cell-based
Experimental: To characterize unmodified PDL1 and IMPα1, MDA-MB-231 cells or CT26 cells were treated with vehicle control, DL-2-batch 1, DL-2-batch 2 or linear PDL1. Cells were permeabilised and were probed with the DUOLINK ligation assay. Cover slips were mounted on glass microscope slides with ProLong nucblue glass Antifade reagent (Life Technologies). PDL1 (unmodified) and IMPα1 DUOLINK Digital images were analysed using ImageJ software (ImageJ, NIH, Bethesda, MD, USA) and graphs represent the mean DOT Fluorescent Intensity in the nucleus or the cytoplasm compartments with significant differences calculated as per One-Way ANOVA comparison.
(A) CT26, 4T1 or MDA-MB-231 Cells were treated with inhibitors for 72 hours. […] Absorbance was recorded at 450 nm after 1 hour. […] PDL1Ac and IMPα1 DUOLINK Digital images were analysed using ImageJ software (ImageJ, NIH, Bethesda, MD, USA) and graphs represent the mean DOT Fluorescent Intensity in the nucleus or the cytoplasm compartments with significant differences calculated as per one-way ANOVA comparison. […] PDL1-unmodified and IMPα1 DUOLINK digital images were analysed using ImageJ software (ImageJ, NIH, Bethesda, MD, USA) and graphs represent the mean DOT fluorescent intensity in the nucleus or the cytoplasm compartments with significant differences calculated as per one-way ANOVA comparison. […]

| Compound | complex of PDL1 (unmodified) and IMPα1 (DUOLINK) |
| --- | --- |
| CCCCCCCCCCCCCC(=O)NC(C)C(=O)NC1CSCc2cc3cc(c2)CSC[C@H](NC(=O)[C@H](Cc2ccccc2)NC(=O)[C@H](C(C)CC)NC(=O)[C@H](Cc2ccccc2)NC(=O)[C@H]([C@@H](C)O)NC(=O)C(CC(C)C)NC1=O)C(=O)N[C@@H](CCCNC(C)=N)C(=O)N[C@@H](CC(C)C)C(=O)N[C@@H](CCCNC(=N)N)C(=O)N[C@@H](CCCCN)C(=O)NCC(=O)N[C@@H](CCCNC(=N)N)C(=O)NC(C(=O)N[C@@H](CCSC)C(=O)NC(CCSC)C(=O)N[C@@H](CC(=O)O)C(=O)NC(C(=O)N[C@@H](CCCCN)C(=O)NC(CCCCN)C(=O)O)C(C)C)CSC3 (mixture of isomers) [DL-2] | able to abrogate the complex |
| LTFIFRLRKGRMMDVKK (Myristyl-LTFIFRLRKGRMMDVKK) [PDL1-L1, Myristyl- linear peptide, prototype] | unable to significantly impact the complex; also recorded: no change |
